Test results as given in US20260258050A1, “IMMUNOMODULATOR” (HITGEN INC., priority 2023, published 2026).

Experiments:
Human IL-17A [1] = biological target: T1, Human IL-17A (Homo sapiens, UniProt Q16552); test: IL-17A enzyme-linked immunosorbent assay (competitive ELISA, IL-17A/IL-17Ra receptor-ligand binding); parameters: purchased Sino Biological Inc. 12047-H07B; conditions: human IL-17A coated plate, human IL-17Ra, read-out: IC50, inhibitory activity of compounds on human IL-17A
T1 sequence (Q16552 20-155 limits assumed): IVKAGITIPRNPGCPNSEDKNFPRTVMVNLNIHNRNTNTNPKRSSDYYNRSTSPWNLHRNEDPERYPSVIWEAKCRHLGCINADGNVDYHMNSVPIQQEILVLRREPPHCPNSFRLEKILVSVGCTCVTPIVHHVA
In short: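 Competitive ELISA with plates coated with human IL-17A at 0.2 μg/ml, blocked with 5% skim milk. Compound pre-incubated with IL-17A 10 min at 25 °C, then 16 nM IL-17Ra stock added for 30 min. Bound receptor detected by anti-Fc HRP/TMB, A450. IC50 from variable-slope fit of blank-corrected residual activity.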

Human IL-17AF = biological target: T2, Human IL-17AF (Homo sapiens, UniProt Q16552+Q96PD4); test: IL-17AF ELISA (competitive ELISA, IL-17AF/IL-17Ra receptor-ligand binding); conditions: human IL-17AF coated plate, human IL-17Ra, read-out: IC50, inhibitory activity of compounds on human IL-17AF
T2 construct: purchased Sino Biological Inc. CT047-H08H
T2 sequence (Q16552 24-155): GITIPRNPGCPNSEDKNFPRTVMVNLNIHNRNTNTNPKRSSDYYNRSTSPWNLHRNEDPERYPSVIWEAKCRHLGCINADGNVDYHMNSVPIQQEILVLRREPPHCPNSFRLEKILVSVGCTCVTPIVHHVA
T2 sequence (Q96PD4 31-163): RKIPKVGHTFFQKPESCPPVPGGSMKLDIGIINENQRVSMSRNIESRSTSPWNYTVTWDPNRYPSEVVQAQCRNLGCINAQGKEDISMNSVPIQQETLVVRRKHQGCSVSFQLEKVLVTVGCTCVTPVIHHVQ
Protocol: Experiment Example 2 IL-17AF ELISA
The inhibitory effects of human IL-17AF inhibitors on receptor-ligand binding were quantitatively determined by a competitive ELISA.
The ELISA was performed through the following steps.
Human IL-17AF (Sino Biological Inc., Cat #CT047-H08H) was diluted with coating buffer (50 mM PBS, pH 7.4) to reach a concentration of 0.625 μg/ml. 100 μL of the resulting solution was added to each well of a 96-well plate, and the plate was incubated at 37° C. for 30 min. In the blank group, 100 μL of coating buffer was added instead of the IL-17AF solution.
The plate was washed four times with 10 mM PBST (pH 7.4). 200 μL was used per well for each wash. After the final wash, the plate was tapped dry on absorbent paper.
Fresh 5% (w/v) skim milk solution was prepared before the experiment. For example, 5 grams of skim milk powder (Bio-Rad, Cat #170-6404) was completely dissolved in 100 mL of 10 mM PBST. 200 μL of the 5% (w/v) skim milk solution was added to each well, and the plate was incubated on a shaker at 25° C. for 30 min.
(S4) Preparation of 100× to-be-Tested Compound Solutions
During step (S3), the to-be-tested compound solutions were prepared. Each powdered compound was dissolved in dimethyl sulfoxide (DMSO) to reach a stock concentration of 10 mM. The to-be-tested compound solutions were then serially diluted four-fold with DMSO to obtain nine concentrations ranging from […].
(S6) Pre-Incubation of IL-17AF with to-be-Tested Compound Solutions
89 μL of PBST and 1 μL of each of the to-be-tested compound solutions were added to each well and mixed. The plate was pre-incubated at 25° C. for 10 min. In the blank group and the control group, 1 μL of DMSO was added instead of the to-be-tested compound solutions.
(S7) Incubation with Human IL-17Ra
10 μL of 100 nM IL-17Ra (Sino Biological Inc., Cat #10895-H03H) was added to each well, followed by incubation on a shaker at 25° C. for 30 min. The receptor solution was prepared in 10 mM PBST.
(S9) Incubation with Horseradish Peroxidase-Conjugated Antibody
100 μL of mouse anti-Fc tag HRP-conjugated antibody (Sino Biological Inc., Cat #10702-MM01T-H) was added to each well. The plate was incubated on a shaker at 25° C. for 30 min. The antibody was diluted with 5% (w/v) skim milk solution at 1:5,000 (v/v).
100 μL of TMB substrate solution (BD, Cat #555214) was added to each well. Substrate A and substrate B were freshly mixed at a volume ratio of 1:1 before use. The plate was incubated in the dark at 25° C. for 5-15 min.
(S12) Termination and Detection
The color reaction was terminated by addition of 2.5 M HCl. Absorbance was measured at 450 nm using a BMG PHERStar microplate reader.
(S13) Calculation of Half-Maximal Inhibitory Concentration (IC50)
The relative percent residual activity at each compound concentration was calculated according to Equation 1. The IC50 value of each test compound was then calculated in GraphPad 6 using the equation for log(inhibitor) versus normalized response with variable slope, as shown in Equation 2.
relative percent residual activity (%)=[(absorbance of sample−absorbance of blank group)/(absorbance of control group−absorbance of blank group)]%. Equation 1: […]
The compounds prepared in the Examples were tested for IL-17AF inhibitory activity according to the above method.

Human IL-17A [2] = biological target: T1, Human IL-17A; test: Inhibition of human IL-17A protein-induced GROα/CXCL1 production in HT-29 cells; type: cell-based; parameters: purchased R&D 317-ILB; host or cells: added exogenously to HT-29 cells; conditions: 30 ng/mL human IL-17A protein, 48 h, GROα in supernatant by ELISA kit, read-out: Inhibitory IC50 of compounds on HT-29 cell GROα/CXCL1
Protocol: Experiment Example 3 Inhibition of Human IL-17A Protein-Induced GROα/CXCL1 Production in HT-29 Cells by Compounds
This assay was conducted to evaluate the ability of the compounds to inhibit human IL-17A protein-induced production of the chemokine growth-regulated oncogene alpha/C-X-C motif chemokine ligand 1 (GROα/CXCL1) in HT-29 cells.
Human colorectal adenocarcinoma epithelial HT-29 cells (Chengdu Zhongyuan Gongchuang Technology Co., Ltd.) were seeded into a 96-well plate at a density of 5×10^4 cells per well and were cultured overnight in an incubator at 37° C.
30 ng/mL of human IL-17A protein (R&D, #317-ILB) was mixed with gradient concentrations of the IL-17A small-molecule inhibitor, or with […] of a positive control IL-17A antibody (R&D, #AF-317-NA). These mixtures were incubated at 37° C. for 1 h and were then added to the plate. The mixtures were co-incubated with the HT-29 cells at 37° C. for 48 h. Thereafter, the level of GROα in the cell culture supernatant was determined using a GROα ELISA kit (Cisbio, #62HCXC1PEG).
The inhibitory activity of each compound was expressed as the half-maximal inhibitory concentration (IC50) for inhibition of GROα/CXCL1 production in HT-29 cells.

IC50 (Human IL-17A [1]) [nM]	IC50 (Human IL-17AF) [nM]	IC50 (Human IL-17A [2]) [nM]	SMILES
≤ 50	100 to 500		Cc1[nH]nc2c1-c1cc(F)c(NC(=O)[C@@H](NC(=O)c3ccnn3CC(F)(F)F)C(C3CC3)C3CC3)cc1COCC2 [compound 94]
50 to 150	100 to 500		Cc1[nH]nc2c1-c1cc(F)c(NC(=O)[C@@H](NC(=O)c3ccnn3CCN3CCOCC3)C(C3CC3)C3CC3)cc1COCC2 [compound 97]
≤ 50	100 to 500		CCn1nccc1C(=O)N[C@H](C(=O)Nc1cc2c(cc1F)-c1c(n[nH]c1C)CC(C)(C)OC2)C(C1CC1)C1CC1 [compound 117]
50 to 150	100 to 500		Cc1[nH]nc2c1-c1cc(F)c(NC(=O)[C@@H](NC(=O)c3ccnn3C)C(C3CC3)C3CC3)cc1CN(C)C(=O)C2 [compound 134]
	≤ 100	100 to 500	COCCN1Cc2cc(NC(=O)[C@@H](NC(=O)c3ccnn3C(C)C)C(C3CC3)C3CC3)c(F)cc2-c2c(n[nH]c2C)CC1=O [compound 137]
	≤ 100	100 to 500	CCn1nccc1C(=O)N[C@H](C(=O)Nc1cc2c(cc1F)-c1c(n[nH]c1C)CC(=O)N(CCOC)C2)C(C1CC1)C1CC1 [compound 138]
≤ 50	100 to 500		Cc1[nH]nc2c1-c1cc(F)c(NC(=O)[C@@H](NC(=O)c3ccnn3C(C)C)C(C3CC3)C3CC3)cc1CN(C)CC2 [compound 154]
50 to 150	100 to 500		Cc1[nH]nc2c1-c1cc(F)c(NC(=O)[C@@H](NC(=O)c3ccnn3C(C)C)C(C3CC3)C3CC3)cc1CN(C(C)C)CC2 [compound 162]
≤ 50	100 to 500		Cc1[nH]nc2c1-c1cc(F)c(NC(=O)[C@@H](NC(=O)c3ccc(C#N)n3C)C(C3CC3)C3CC3)cc1COCC2 [compound 227]
